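Test compounds were applied to cells in 96-well plates for 48 hours at 5 doses. Definition used: TGI = concentration required for complete inhibition of growth.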 Where a SMILES comes first, the peptide text is derived from it. [ ]: non-standard residue; d: D form. The star is where a group is joined. Bn2Val = CC(C)[C@@H](C(=O)*)N(Cc1ccccc1)Cc1ccccc1; NMeV = CN[C@H](C(=O)O)C(C)C; X29 = COc1ccc(CN*)c(OC)c1; dNMeA = CN[C@H](C)C(=O)O; Boc = CC(C)(C)OC(=O)*; OBn = c1ccc(CO*)cc1
Assays:
Assay in all cases: NCI tumour cell line growth inhibition, 48 h
[1] = tested on: M14 melanoma
[2] = tested on: DU-145 prostate
[3] = tested on: SNB-19 CNS
[4] = tested on: SR leukemia
[5] = tested on: HCT-15 colon
[6] = tested on: TK-10 renal
[7] = tested on: PC-3 prostate
[8] = tested on: UACC-62 melanoma
[9] = tested on: NCI/ADR-RES ovarian
[10] = tested on: CCRF-CEM leukemia

Structure (SMILES) | TGI [1] [µM] | TGI [2] [µM] | TGI [3] [µM] | TGI [4] [µM] | TGI [5] [µM] | TGI [6] [µM] | TGI [7] [µM] | TGI [8] [µM] | TGI [9] [µM] | TGI [10] [µM]
O=C1C=C2CCC[C@H]3OC(=O)C[C@@]23CC1 | > 100 | > 100 | > 100 | > 100 | > 100 | > 100 | > 100 | > 100 | > 100 | –
Cc1c(OCc2ccccc2)c(=O)ccn1CCc1c[nH]c2ccccc12 | 86.2 | > 100 | > 100 | 79.7 | > 100 | > 100 | > 100 | 87.3 | > 100 | > 100
COc1ccc(CNC(=O)[C@@H]2CCCN2C(=O)[C@@H](C)N(C)C(=O)[C@H](C(C)C)N(C)C(=O)[C@@H](NC(=O)[C@H](C(C)C)N(Cc2ccccc2)Cc2ccccc2)C(C)C)c(OC)c1 (Bn2Val-V[NMeV][dNMeA]P-X29) | 10.5 | 20.7 | 22.8 | – | 13.5 | 22.4 | 10.1 | 15.4 | 12.3 | –
CCCC1C(=O)Nc2cccc3ncn(c23)C1=O (configuration not stated) | > 100 | > 100 | > 100 | > 100 | > 100 | – | > 100 | > 100 | > 100 | > 100
CCOC(=O)c1c(C)nc2c(c1-c1cn(-c3ccccc3)nc1-c1ccccc1)C(=O)c1ccccc1-2 | > 100 | > 100 | > 100 | – | > 100 | > 100 | > 100 | > 100 | > 100 | > 100
O=c1[nH]c(=O)n(COCCO)c2ccsc12 | > 100 | > 100 | > 100 | > 100 | > 100 | > 100 | > 100 | – | > 100 | > 100
CN1CN(c2ccccc2)C2(CCN(CCCCCCF)CC2)C1=O | > 100 | > 100 | > 100 | > 100 | > 100 | > 100 | > 100 | > 100 | 40.3 | > 100
CCOC(=O)C(NC(=O)CC)(Nc1ccc(S(=O)(=O)Nc2onc(C)c2C)cc1)C(F)(F)F (configuration not stated) | > 100 | > 100 | > 100 | > 100 | > 100 | – | > 100 | > 100 | > 100 | > 100
Cc1ccc(S(=O)(=O)[C@@H](Cl)[C@H]2N=C(Cl)NN=C2c2ccccc2)cc1 | 42.6 | 70.9 | > 100 | > 100 | 54.5 | > 100 | 39.5 | 44 | 50.8 | 75
Cc1ccc(-c2cc(O)c3nc4ccccc4n3c2)cc1 | > 100 | > 100 | > 100 | > 100 | > 100 | > 100 | > 100 | > 100 | > 100 | > 100
CC(C)(O)C1CC[C@]2(C)[C@H]3CC[C@@H]4[C@@]5(C)CCCC(C)(C)[C@@H]5CC[C@@]4(C)[C@]3(C)CC[C@@H]12 (some centres not stated) | > 100 | > 100 | > 100 | – | > 100 | > 100 | > 100 | > 100 | > 100 | > 100
COc1ccccc1N=Nc1c(O)c(S(=O)(=O)O)cc2cc(S(=O)(=O)O)ccc12 | > 100 | > 100 | > 100 | > 100 | > 100 | > 100 | > 100 | > 100 | > 100 | > 100
CN1N=C(c2ccncc2)OC1c1cccc(C(F)(F)F)c1 (configuration not stated) | > 100 | > 100 | > 100 | – | > 100 | > 100 | > 100 | > 100 | > 100 | > 100
O=C(O)CC[P+](c1ccccc1)(c1ccccc1)c1ccccc1 | > 100 | > 100 | > 100 | > 100 | > 100 | > 100 | > 100 | > 100 | > 100 | > 100
O=C(Sc1c(-c2ccccc2)c(=O)n(-c2ccccc2)c(=S)n1-c1ccccc1)c1cccs1 | > 100 | > 100 | > 100 | > 100 | > 100 | > 100 | > 100 | – | > 100 | 97.8
Cc1cccc2nc3c(=O)[nH]c(=O)nc-3n(C)c12 | > 100 | > 100 | > 100 | – | > 100 | > 100 | > 100 | > 100 | > 100 | > 100
Cn1c([C@H](C#N)C(=O)c2cc(O)ccc2[N+](=O)[O-])nc2ccccc21 | > 100 | > 100 | > 100 | > 100 | > 100 | > 100 | > 100 | > 100 | > 100 | > 100
CCOC(=O)NNC(=O)NCc1ccccc1CNC(=O)NNC(=O)OCC | > 100 | > 100 | > 100 | > 100 | > 100 | > 100 | > 100 | > 100 | > 100 | > 100
OCC(CCc1ccccc1I)C1=CCC2(CC1)OCCO2 (configuration not stated) | 35.3 | 48 | 37.7 | > 100 | 54.7 | 50.7 | 52.5 | 35.6 | 48 | 35.7
CC(C)CC(NC(=O)OC(C)(C)C)C(=O)NC(CC(=O)OCc1ccccc1)C(=O)OCc1ccccc1 (stereo not drawn) (Boc-Leu-Asp(OBn)-OBn; configuration not given here) | 38.6 | > 100 | 99.5 | 63.8 | – | 60.9 | 84.8 | 45.9 | > 100 | > 100
CS(=O)(=O)c1nc(-c2cc3c(c(S(C)(=O)=O)n2)CCC3)cc2c1CCCC2 | > 100 | > 100 | > 100 | – | > 100 | > 100 | > 100 | 29.6 | > 100 | > 100
C=C[C@@]1(O)CCCC[C@@H]1CC(Sc1ccccc1)Sc1ccccc1 | 37 | 32.2 | 35.6 | > 100 | 34.6 | 30.9 | 29.1 | > 100 | 39.7 | > 100

From PubChem BioAssay (NCI)
